Source: BindingDB's records for doi:10.1016/s0960-894x(03)00408-6 (Millennium Pharmaceuticals, 2003)

Columns and labels:
Protein kinase C (PKC) = test: Inhibitory activity against protein kinase C.
[1] = molecular target: cAMP-dependent protein kinase catalytic subunit alpha/beta/gamma (Homo sapiens, UniProt P17612+P22694+P22612); test: Inhibitory activity against protein kinase A.

SMILES	IC50 (Protein kinase C (PKC)) [µM]	IC50 [1] [µM]
Clc1cc2c3cc[nH]cc-3nc2c(Cl)c1OCC1CC1 [6,8-Dichloro-7-cyclopropylmethoxy-9H-beta-carboline]	> 25	> 25
COc1ccccc1C(=O)Nc1cc(Cl)cc2c3cc[nH]cc-3nc12 [N-(6-Chloro-9H-beta-carbolin-8-yl)-2-methoxy-benzamide]	> 25	> 25

Other lines, results leading:

IC50 (Protein kinase C (PKC)) [µM]	IC50 [1] [µM]	SMILES
> 25	> 25	O=[N+]([O-])c1cc(Cl)cc2c1[nH]c1cnccc12 [6-Chloro-8-nitro-9H-beta-carboline]
> 25	> 25	COc1cccc(C(=O)Nc2cc(Cl)cc3c4cc[nH]cc-4nc23)c1 [N-(6-Chloro-9H-beta-carbolin-8-yl)-3-methoxy-benzamide]
> 25	> 25	COc1ccc(C(=O)Nc2cc(Cl)cc3c4cc[nH]cc-4nc23)cc1 [N-(6-Chloro-9H-beta-carbolin-8-yl)-4-methoxy-benzamide]
